The assay has as its target T1, human GPR119 (Homo sapiens, UniProt Q8TDV5).
T1 sequence (Q8TDV5 1-308 limits assumed): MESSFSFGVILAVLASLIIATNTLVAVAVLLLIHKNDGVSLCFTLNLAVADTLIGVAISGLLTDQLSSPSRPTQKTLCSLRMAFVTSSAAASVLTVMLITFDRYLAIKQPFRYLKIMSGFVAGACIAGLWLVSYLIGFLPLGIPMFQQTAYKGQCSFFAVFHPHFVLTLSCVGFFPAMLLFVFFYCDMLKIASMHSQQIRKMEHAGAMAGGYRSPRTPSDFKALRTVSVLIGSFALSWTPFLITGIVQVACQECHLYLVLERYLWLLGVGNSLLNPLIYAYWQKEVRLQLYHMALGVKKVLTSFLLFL
Nature of the assay: Measurement of GPR119 signaling (cAMP assay; LANCE kit or HTRF) in HEK293 cells stably transfected with human GPR119. The conditions noted are these: agonist-stimulated cAMP in HEK293 cells expressing human GPR119. In kind it is cell-based. Put shortly:
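LANCE method: cAMP detected with Eu-chelate/biotin-cAMP tracer, 3 h, read at 665 nm, converted via cAMP standards; basal from DMSO, maximum from internal agonist, 4-parameter fit.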
Background: Cyclic AMP is a second messenger, typically raised through Gs and lowered through Gi signalling.
Usually EC50 stands for the concentration needed to bring the measured effect to its halfway point. Read a low EC50 as higher potency in that assay. In the case of `CC(C)c1noc(N2CCC([C@H]3C[C@H]3COCc3ccc(S(C)(=O)=O)cc3F)CC2)n1` [Example 78, 4-[(1R,2R)-2-({[2-fluoro-4-(methylsulfonyl)benzyl]oxy}methyl)cyclopropyl 1]-1-(3-isopropyl-1,2,4-oxadiazol-5-yl)piperidine], the EC50 turned out to be 4.9 nM.

For `CC(C)(C)OC(=O)N1CCC([C@H]2C[C@H]2COCc2ccc(S(=O)(=O)CCO)cc2F)CC1` [Example 79, tert-butyl 4-{(1R,2R)-2-[({2-fluoro-4-[(2-hydroxyethyl)sulfonyl]benzyl}oxy)methyl]cyclopropyl}piperidine-1-carboxylate], the EC50 was determined as 7.1 nM.

Compound `O=S(=O)(CCO)c1ccc(COC[C@@H]2C[C@@H]2C2CCN(c3ncc(Cl)cn3)CC2)c(F)c1` [Example 80] displayed an EC50 of 2.3 nM.

Take `O=S(=O)(CCO)c1ccc(COC[C@@H]2C[C@@H]2C2CCN(c3ncc(Br)cn3)CC2)c(F)c1` [Example 81]: the EC50 stood at 1.7 nM.

Turning to `Cc1cnc(N2CCC([C@H]3C[C@H]3COCc3ccc(S(=O)(=O)CCO)cc3F)CC2)nc1` [Example 82], a half-maximal response (EC50) required 11.7 nM.

Compound `CCc1cnc(N2CCC([C@H]3C[C@H]3COCc3ccc(S(=O)(=O)CCO)cc3F)CC2)nc1` [Example 83] returned an EC50 of 21 nM.

`CCCc1cnc(N2CCC([C@H]3C[C@H]3COCc3ccc(S(=O)(=O)CCO)cc3F)CC2)nc1` [Example 84]: the EC50 is 1.3 nM.

Regarding `O=S(=O)(CCO)c1ccc(COC[C@@H]2C[C@@H]2C2CCN(c3ncc(-c4ccoc4)cn3)CC2)c(F)c1` [Example 85, 2-[(3-fluoro-4-{[((1R,2R)-2-{1-[5-(3-furyl)pyrimidin-2-yl]piperidin-4-yl}cyclopropyl)methoxy]methyl}phenyl)sulfonyl]ethanol], the response was half-maximal at 3.8 nM (EC50).

On to `O=S(=O)(CCO)c1ccc(COC[C@@H]2C[C@@H]2C2CCN(c3ncc(Cl)cn3)CC2)nc1` [Example 86, 2-({6-[({(1R,2R)-2-[1-(5-chloropyrimidin-2-yl)piperidin-4-yl]cyclopropyl}methoxy)methyl]pyridin-3-yl}sulfonyl)ethanol], for which a half-maximal response (EC50) required 22 nM.

In the case of `O=S(=O)(CCO)c1ccc(COC[C@@H]2C[C@@H]2C2CCN(c3ncc(Br)cn3)CC2)nc1` [Example 87, 2-({6-[({(1R,2R)-2-[1-(5-bromopyrimidin-2-yl)piperidin-4-yl]cyclopropyl}methoxy)methyl]pyridin-3-yl}sulfonyl)ethanol], the midpoint of the response, the EC50, lay at 10.7 nM.

Turning to `CCc1cnc(N2CCC([C@H]3C[C@H]3COCc3ccc(S(=O)(=O)CCO)cn3)CC2)nc1` [Example 88, 2-({6-[({(1R,2R)-2-[1-(5-ethylpyrimidin-2-yl)piperidin-4-yl]cyclopropyl}methoxy)methyl]pyridin-3-yl}sulfonyl)ethanol], a half-maximal response (EC50) required 17 nM.

On to `CCCc1cnc(N2CCC([C@H]3C[C@H]3COCc3ccc(S(=O)(=O)CCO)cn3)CC2)nc1` [Example 89, 2-({6-[({(1R,2R)-2-[1-(5-propylpyrimidin-2-yl)piperidin-4-yl]cyclopropyl}methoxy)methyl]pyridin-3-yl}sulfonyl)ethanol], for which a half-maximal effect (EC50) was put at 10 nM.

Regarding `O=S(=O)(CCO)c1ccc(COC[C@@H]2C[C@@H]2C2CCN(c3ncc(C4CC4)cn3)CC2)nc1` [Example 90, 2-({6-[({(1R,2R)-2-[1-(5-cyclopropylpyrimidin-2-yl)piperidin-4-yl]cyclopropyl}methoxy)methyl]pyridin-3-yl}sulfonyl)ethanol], the midpoint of the response, the EC50, lay at 23 nM.

`CC(=O)CSc1ccc(COC[C@@H]2C[C@@H]2C2CCN(C(=O)OC(C)(C)C)CC2)cc1` [Example 91]: the EC50 stood at 14.9 nM.

`CC(C)(O)CSc1ccc(COC[C@@H]2C[C@@H]2C2CCN(C(=O)OC(C)(C)C)CC2)cc1` [Example 92]: the response was half-maximal at 20.3 nM (EC50).

`CC(O)CS(=O)(=O)c1ccc(COC[C@@H]2C[C@@H]2C2CCN(C(=O)OC(C)(C)C)CC2)cc1` (some centres unmarked) [Example 94]: the EC50 was determined as 9.5 nM.

In the case of `CC(O)CS(=O)(=O)c1ccc(COC[C@@H]2C[C@@H]2C2CCN(c3ncc(Cl)cn3)CC2)c(F)c1` (stereo partly drawn) [Example 95, 1-({4-[({(1R,2R)-2-[1-(5-chloropyrimidin-2-yl)piperidin-4-yl]cyclopropyll}methoxy)methyl]-3-fluorophenyl}sulfonyl)propan-2-ol], the EC50 was 2.4 nM.

For `CC(O)CS(=O)(=O)c1ccc(COC[C@@H]2C[C@@H]2C2CCN(c3ncc(F)cn3)CC2)c(F)c1` (stereo partly drawn) [Example 96, 1-({4-[({(1R,2R)-2-[1-(5-fluoropyrimidin-2-yl)piperidin-4-yl]cyclopropyl}methoxy)methyl]-3-fluorophenyl}sulfonyl)propan-2-ol], a half-maximal effect (EC50) was put at 21.9 nM.

Take `CC(O)CS(=O)(=O)c1ccc(COC[C@@H]2C[C@@H]2C2CCN(c3ncc(Br)cn3)CC2)c(F)c1` (stereo partly drawn) [Example 97, 1-({4-[({(1R,2R)-2-[1-(5-bromopyrimidin-2-yl)piperidin-4-yl]cyclopropyl}methoxy)methyl]-3-fluorophenyl}sulfonyl)propan-2-ol]: the EC50 turned out to be 1.6 nM.

`CC(O)CS(=O)(=O)c1ccc(COC[C@@H]2C[C@@H]2C2CCN(c3cnc(Cl)cn3)CC2)c(F)c1` (stereo partly drawn) [Example 98, 1-({4-[({(1R,2R)-2-[1-(5-chloropyrazin-2-yl)piperidin-4-yl]cyclopropyl}methoxy)methyl]-3-fluorophenyl}sulfonyl)propan-2-ol] displayed an EC50 of 7.3 nM.

`CCc1cnc(N2CCC([C@H]3C[C@H]3COCc3ccc(-c4cccnn4)cc3F)CC2)nc1` [Example 99, 3-{4-[({(1R,2R)-2-[1-(5-ethylpyrimidin-2-yl)piperidin-4-yl]cyclopropyl}methoxy)methyl]-3-fluorophenyl}pyridazine] showed an EC50 of 0.1 nM.

For `CCc1cnc(N2CCC([C@H]3C[C@H]3COCc3ccc(-c4ccc(C)nn4)cc3F)CC2)nc1` [Example 100, 3-{4-[({(1R,2R)-2-[1-(5-ethylpyrimidin-2-yl)piperidin-4-yl]cyclopropyl}methoxy)methyl]-3-fluorophenyl}-6-methylpyridazine], the midpoint of the response, the EC50, lay at 1 nM.

Take `CCc1cnc(N2CCC([C@H]3C[C@H]3COCc3ccc(-c4ccc(OC)nn4)cc3F)CC2)nc1` [Example 101, 3-{4-[({(1R,2R)-2-[1-(5-ethylpyrimidin-2-yl)piperidin-4-yl]cyclopropyl}methoxy)methyl]-3-fluorophenyl}-6-methoxypyridazine]: it took 0.8 nM to reach a half-maximal effect (EC50).

In turn, `CCc1cnc(N2CCC([C@H]3C[C@H]3COCc3ccc(-c4ccnnc4)cc3F)CC2)nc1` [Example 102, 4-{4-[({(1R,2R)-2-[1-(5-ethylpyrimidin-2-yl)piperidin-4-yl]cyclopropyl}methoxy)methyl]-3-fluorophenyl}pyridazine] had an EC50 of 0.6 nM.

Turning to `CCc1cnc(N2CCC([C@H]3C[C@H]3COCc3ccc(-c4cnc(N)nc4)cc3F)CC2)nc1` [Example 103, 5-{4-[({(1R,2R)-2-[1-(5-ethylpyrimidin-2-yl)piperidin-4-yl]cyclopropyl}methoxy)methyl]-3-fluorophenyl}pyrimidin-2-amine], it took 2.5 nM to reach a half-maximal effect (EC50).

As to `CCc1cnc(N2CCC([C@H]3C[C@H]3COCc3ccc(-c4cnc(OC)nc4)cc3F)CC2)nc1` [Example 104, 5-{4-[({(1R,2R)-2-[1-(5-ethylpyrimidin-2-yl)piperidin-4-yl]cyclopropyl}methoxy)methyl]-3-fluorophenyl}-2-methoxypyrimidine], the EC50 stood at 8.8 nM.

For the compound `CCc1cnc(N2CCC([C@H]3C[C@H]3COCc3ccc(-c4ccnc(N)n4)cc3F)CC2)nc1` [Example 105, 4-{4-[({(1R,2R)-2-[1-(5-ethylpyrimidin-2-yl)piperidin-4-yl]cyclopropyl}methoxy)methyl]-3-fluorophenyl}pyrimidin-2-amine], the response was half-maximal at 10.8 nM (EC50).

With `CCc1cnc(N2CCC([C@H]3C[C@H]3COCc3ccc(-c4ccnc(OC)n4)cc3F)CC2)nc1` [Example 106, 4-{4-[({(1R,2R)-2-[1-(5-ethylpyrimidin-2-yl)piperidin-4-yl]cyclopropyl}methoxy)methyl]-3-fluorophenyl}-2-methoxypyrimidine], the midpoint of the response, the EC50, lay at 2.9 nM.

With `CCc1cnc(N2CCC([C@H]3C[C@H]3COCc3ccc(-c4nccnc4N)cc3F)CC2)nc1` [Example 107, 2-{4-[({(1R,2R)-2-[1-(5-ethylpyrimidin-2-yl)piperidin-4-yl]cyclopropyl}methoxy)methyl]-3-fluorophenyl}pyrazin-2-amine], the EC50 amounted to 2 nM.

`CCc1cnc(N2CCC([C@H]3C[C@H]3COCc3ccc(-c4cncnc4)cc3F)CC2)nc1` [Example 108, 5-{4-[({(1R,2R)-2-[1-(5-ethylpyrimidin-2-yl)piperidin-4-yl]cyclopropyl}methoxy)methyl]-3-fluorophenyl}pyrimidine] came in with an EC50 of 1.1 nM.

In turn, `CCc1cnc(N2CCC([C@H]3C[C@H]3COCc3ccc(-c4cnccn4)cc3F)CC2)nc1` [Example 109, 2-{4-[({(1R,2R)-2-[1-(5-ethylpyrimidin-2-yl)piperidin-4-yl]cyclopropyl}methoxy)methyl]-3-fluorophenyl}pyrazine] yielded an EC50 of 2.3 nM.

As for `CCc1cnc(N2CCC([C@H]3C[C@H]3COCc3ccc(-c4ccncn4)cc3F)CC2)nc1` [Example 110, 4-{4-[({(1R,2R)-2-[1-(5-ethylpyrimidin-2-yl)piperidin-4-yl]cyclopropyl}methoxy)methyl]-3-fluorophenyl}pyrimidine], the EC50 was determined as 1.5 nM.

For the origin of these results see patent publication US9006228B2 (Merck Sharp & Dohme Corp., priority 2011, dated 2015).
